According to patent US7175850B2, “Formulation for topical non-invasive application in vivo” (Idea AG, priority 1998, dated 2007):

Key:
[1] = Biodistribution after epicutaneous application (blood, skin); type: in vivo, mice
Experimental: Drug in the Carrier (Transfersome) Suspensions. The formulations used in the biodistribution studies were labelled with the tritiurated corticosteroids purchased from Amersham or ICN. Preparation of the formulations for the use in animals was done by dissolving all lipoids in methanol/chloroform (1/1 v/v) in the appropriate amounts and preparing a dry mixed lipid film under vacuum (≦10 Pa;≧12 h). The use of potentially harmful organic solvents or drying was entirely avoided in the manufacturing of human medications.
In vivo Experiments mainly involved 8–12 weeks old NMRI mice which were kept under standard laboratory conditions (3–5 per suspending cage; standard chew and water ad libitum; 12 h light/dark regime). Stressful or painful manipulations were always carried out under general injection anesthesia.
Biodistribution. The hair at the chosen skin site was trimmed with a pair of scissors to the length of ≦2 mm one day before experimentation. The precise application site on the upper back was marked and the appropriate amount (0.5 μL to 25 μL) and drug formulation was applied with a micro-pipette on the skin. After uniform distribution with the side of the same pipette tip, the application was left to dry.
Blood samples (20 μL) were taken from the tail end with a glass capillary. After 8 hours the animals were killed by heart puncture and the treated skin area was undermined and carefully excised. The outermost layers of the stratum corneum were collected by five tape-strippings. Subsequently, the residual skin tissue and other organ samples were prepared, destained and used for radioactivity counting. For the experiments with porcine skin, […] of full thickness organ was excised and fixed on a wet tissue. Several test areas of 1 cm^2 were then marked and treated further as in vivo.

[2] = Ratio of corticosteroid concentration in blood and inner skin, calculated for humans
Experimental: The area dose will normally be between 0.1 μg cm^−2 and 1 μg cm^−2, for the high and low potency drugs, respectively.

Row | Ratio of corticosteroid concentration in the blood and in the 'inner skin' (mouse) ([1]; dose 0.5 μg/cm^−2, measured) | Ratio of corticosteroid concentration in the blood and in the 'inner skin' (mouse) ([1]; dose 4.9 μg/cm^−2, measured) | Ratio of corticosteroid concentration in the blood and in the 'inner skin' (mouse) ([1]; dose 49.5 μg/cm^−2, measured) | Ratio of corticosteroid concentration in the blood and in the 'inner skin' (mouse) ([1]; dose 1.3 μg/cm^−2, measured) | Ratio of corticosteroid concentration in the blood and in the 'inner skin' (mouse) ([1]; dose 13.2 μg/cm^−2, measured) | Ratio of corticosteroid concentration in the blood and in the 'inner skin' (mouse) ([1]; dose 20.6 μg/cm^−2, measured) | Ratio of corticosteroid concentration in the blood and in the 'inner skin' (human) ([2]; dose 1.3 μg/cm^−2) | Ratio of corticosteroid concentration in the blood and in the 'inner skin' (human) ([2]; dose 13.2 μg/cm^−2) | Ratio of corticosteroid concentration in the blood and in the 'inner skin' (human) ([2]; dose 20.6 μg/cm^−2) | SMILES
1 | 0 | 0.1 | 0.25 |  |  |  |  |  |  | C[C@@H]1C[C@H]2[C@@H]3CCC4=CC(=O)C=C[C@]4(C)[C@@]3(F)[C@@H](O)C[C@]2(C)[C@@]1(O)C(=O)CO [Dexamethasone, dexamethasone]
2 | 0 | 0.012 | 0.015 |  |  |  |  |  |  | C[C@]12CCC(=O)C=C1CC[C@@H]1[C@@H]2[C@@H](O)C[C@@]2(C)[C@H]1CC[C@]2(O)C(=O)CO [Hydrocortisone, hydrocortisone]
3 |  |  |  | 0.02 | 0.04 | 0.03 | 0.00007 | 0.00011 | 0.0001 | CC1(C)O[C@@H]2C[C@H]3[C@@H]4CCC5=CC(=O)C=C[C@]5(C)[C@@]4(F)[C@@H](O)C[C@]3(C)[C@]2(C(=O)CO)O1 [Triamcinolone-acetonide, triamcinolone-acetonide]
